Values quoted from earlier work, collected in patent US9072749B2, “Treatment of age-related macular degeneration” (priority 2007, dated 2015).
Where two headings read alike, the source gives them in different places.

Tests used:
[1] = test system: D1/D5 receptor; details: anesthetized rabbits
[2] = oral dosing in dogs
[3] = test system: dogs; details: oral dosing in dogs
[4] = test system: choroidal neovascularization; details: in vivo

## NCCc1ccc(O)c(O)c1 [dopamine]
[1]
  choroidal vasodilation: caused choroidal vasodilation

## Oc1ccc(C2CNCCc3c2cc(O)c(O)c3Cl)cc1 (stereo not shown) [Fenoldopam]
[2]
  plasma fenoldopam (drug blood) level: rapidly gives high drug blood level
[3]; FIGS. 2a and 2b
  duration of drug blood level and increase in renal blood flow: relatively short duration

## CCNC(=O)Oc1ccc([C@H]2CNCCc3c2cc(OC(=O)NCC)c(OC(=O)NCC)c3Cl)cc1 [SKF 10508]
[2]
  plasma fenoldopam (drug blood) level: more gradual increase of drug blood level
[2]; listed as SK&F 105058
  plasma fenoldopam (drug blood) level: release fenoldopam slowly after oral absorption
[3]; FIGS. 3A and 3B
  time for which the increase in renal blood flow is sustained: greater than 6 hours

## CC1=C(/C=C/C(C)=C/C=C/C(C)=C/C=C/C=C(C)/C=C/C=C(C)/C=C/C2=C(C)C(=O)C(O)CC2(C)C)C(C)(C)CC(O)C1=O (stereo not shown) [Astaxanthin]
[4]
  choroidal neovascularization: inhibit choroidal neovascularization
